This note sets out measurements from patent publication US7855165B2, “Herbicide composition for paddy field” (Bayer Cropscience AG, priority 2007, dated 2010).

Where two headings read alike, the source gives them in different places.

One data set relates to paddy rice. As to the kind of experiment: Test Example 2: test of effect of phytotoxicity reduction. In kind it is in vivo. The note with it: 2 weeks after treatment. An excerpt:
(§1) • Component (a) (a-1): compound No. 1 (ref: the aforementioned Table A) • (a-2): compound No. 3 (same as above) • (a-3): compound No. 11 (same as above) • Component (b) the aforementioned (b-1)-(b-15) • Component (c) the aforementioned (c-1)-(c-3) <Preparation of Test Agents> • Carrier: Acetone 5 parts by weight • Surfactant: Benzyloxy polyglycol ether 1 part by weight The above-mentioned carrier and surfactant and 1 part by weight of active compounds (component (a) and component (b) or component (c)) are mixed and the obtained formulations are diluted with water to prepare the test agents of the prescribed chemicals amount (preparations).
In a green house, paddy rice of 2-2.5 leafstage was transplanted to paddy field soil filled in a 1000 cm^2 pot to 2 cm depth and brought to a submerged condition of about 2-3 cm. Five days after the transplantation, prescribed diluted solution of preparation of each active compound and each herbicide in the following table was applied on water surface each singly or simultaneously. After the treatment, the submerged condition of 3 cm was maintained and the grade of phytotoxicity to paddy rice was studied 2 weeks after the treatment. The phytotoxicity was evaluated as 100% in case of complete death and 0% in case of no phytotoxicity.

Data set [1] concerns Cyperus serotinus Rottboel. Nature of the data set: Test Example 1: effect of the herbicide composition against paddy field weeds (pot test, green house). It counts as in vivo.
Description: as §1
(§2) In a green house, seeds or tubers of Monochoria vaginalis Presl, annual broad-leaves (Lindernia procumbens Philcox, Rotala indica Koehne, Elatine triandra Schk, Ammannia multiflora Roxb., etc.), Cyperus serotinus Rottboel, and Sagittaria pygmaea Miq were inoculated to paddy field soil filled in a 500 cm^2 pot and brought to a submerged condition of about 2-3 cm. At 1.5-2 leafstage of each weed prescribed diluted solution of preparation of each active compound and each herbicide in the following table was applied on water surface each singly or simultaneously. After the treatment, the submerged condition of 3 cm was maintained and the herbicidal effect was studied 3 weeks after the treatment. The herbicidal effect was evaluated as 100% in case of complete death and 0% in case of no effect.
(§3) In the tables, MOOVP represents Monochoria vaginalis Presl, BBBBB represents annual broad-leaves, CYPSE represents Cyperus serotinus Rottboel and SAGPY represents Sagittaria pygmaea Miq.

Data set [2] deals with Monochoria vaginalis Presl. Described as above. It counts as in vivo.
Description: as §1, §2, §3

The next data set has as its system Sagittaria pygmaea Miq. The data set is described as above. In kind it is in vivo.
Description: as §1, §2, §3

Test in data set [3]: as above
In kind it is in vivo, annual broad-leaves. The note with it: 504 h, read-out: Herbicidal effect (%) BBBBB.
Description: as §2, with “At 1.5-2 leafstage of each weed prescribed diluted solution of preparation of each active compound and each herbicide in the following table was applied on water surface each singly or simultaneously.” left out
as §3

Data set [4] relates to annual broad-leaves (Lindernia procumbens Philcox, Rotala indica Koehne, Elatine triandra Schk, Ammannia multiflora Roxb., etc.). Described as above. In kind it is in vivo. The note with it: 3 weeks after treatment.
Description: as §2, with “At 1.5-2 leafstage of each weed prescribed diluted solution of preparation of each active compound and each herbicide in the following table was applied on water surface each singly or simultaneously.” left out
as §3

Setting [5] is: Cyperus serotinus, 504 h, read-out: Herbicidal effect (%) CYPSE.
[6] abbreviates: Pontederia vaginalis, 504 h, read-out: Herbicidal effect (%) MOOVP.
Where [7] appears, read: Sagittaria pygmaea, 504 h, read-out: Herbicidal effect (%) SAGPY.
The mark [8] stands for this setting: 50 g/ha single, 3 weeks after treatment.
Where [9] appears, read: 100 g/ha single, 3 weeks after treatment.

For the compound `Cc1ccc(NC(=O)NC(C)(C)c2ccccc2)cc1` [(c-1), dymron], in the data set with paddy rice (450 g/ha single), the Phytotoxicity % is 0%.

As to `CC1=C(c2ccccc2)C(=O)N(C(C)(C)c2cc(Cl)cc(Cl)c2)CO1` [(b-10), oxaziclomefone], the pest or weed control at 20 g/ha in data set [1] (Cyperus serotinus, 504 h, 20 g/ha single, 3 weeks after treatment, read-out: Herbicidal effect (%) CYPSE) was found to be 0%; in data set [2] (Pontederia vaginalis, 504 h, 20 g/ha single, 3 weeks after treatment, read-out: Herbicidal effect (%) MOOVP) it was 10%; with Sagittaria pygmaea Miq (Sagittaria pygmaea, 504 h, 20 g/ha single, 3 weeks after treatment, read-out: Herbicidal effect (%) SAGPY), 0%; in data set [3], 40%. Further, the pest or weed control at 40 g/ha in data set [1] (Cyperus serotinus, 504 h, 40 g/ha single, 3 weeks after treatment, read-out: Herbicidal effect (%) CYPSE) was found to be 0%; in data set [2] (Pontederia vaginalis, 504 h, 40 g/ha single, 3 weeks after treatment, read-out: Herbicidal effect (%) MOOVP), 20%; with Sagittaria pygmaea Miq (Sagittaria pygmaea, 504 h, 40 g/ha single, 3 weeks after treatment, read-out: Herbicidal effect (%) SAGPY), 10%; in data set [3], 40%.

As for `COP(=S)(OC)SCC(=O)N(c1ccc(Cl)cc1)C(C)(C)C` [(b-1), anilofos], the pest or weed control at 100 g/ha in data set [1] (setting [5]) came out at 0%; in data set [2] (setting [6]), 10%; with Sagittaria pygmaea Miq (setting [7]) it was 10%; in data set [3] it was 0%. Moreover, the pest or weed control at 200 g/ha in data set [1] (setting [5]) was 0%; in data set [2] (setting [6]) it was 10%; in the data set on Sagittaria pygmaea Miq (setting [7]), 10%; in data set [3], 0%.

Consider `C#CCN(C)c1c(C#N)cnn1-c1nn2c(c1Cl)CCCC2` [(b-6), pyraclonil], for which the “Herbicidal effect (%) CYPSE” value in data set [1] (setting [8]) is on record as 20%; in data set [1] (setting [9]) it was 30%. Moreover, the “Herbicidal effect (%) MOOVP” value is given as 80% in data set [2] (setting [8]) and 90% in data set [2] (setting [9]). Moreover, the “Herbicidal effect (%) SAGPY” value was 50% in the data set on Sagittaria pygmaea Miq (setting [8]) and 85% in the data set with Sagittaria pygmaea Miq (setting [9]). Moreover, the “Herbicidal effect (%) BBBBB” value in data set [4] (50 g/ha single) and in data set [4] (100 g/ha single) was 90% in each case.

`O=C(O)C1=NOC(c2ccccc2)(c2ccccc2)C1` [(c-3), isoxadifen] had a Phytotoxicity % with paddy rice (500 g/ha single) of 0%.

In the data set on paddy rice (500 g/ha single), `CCOC(=O)C1=NN(c2ccc(Cl)cc2Cl)C(C)(C(=O)OCC)C1` (stereo not shown) [(c-2), mefenpyr-diethyl] registered a Phytotoxicity % of 0%.

Turning to `CC(C)(NC(=O)C(Br)C(C)(C)C)c1ccccc1` (stereo not shown) [(b-14), bromobutide], the pest or weed control at 200 g/ha was found to be 40% in data set [1] (Cyperus serotinus, 504 h, 200 g/ha single, 3 weeks after treatment, read-out: Herbicidal effect (%) CYPSE); 30% in data set [2] (Pontederia vaginalis, 504 h, 200 g/ha single, 3 weeks after treatment, read-out: Herbicidal effect (%) MOOVP); 10% with Sagittaria pygmaea Miq (Sagittaria pygmaea, 504 h, 200 g/ha single, 3 weeks after treatment, read-out: Herbicidal effect (%) SAGPY); 20% in data set [3]. For the same compound, the pest or weed control at 400 g/ha in data set [1] (Cyperus serotinus, 504 h, 400 g/ha single, 3 weeks after treatment, read-out: Herbicidal effect (%) CYPSE) stood at 60%; in data set [2] (Pontederia vaginalis, 504 h, 400 g/ha single, 3 weeks after treatment, read-out: Herbicidal effect (%) MOOVP), 95%; in the data set with Sagittaria pygmaea Miq (Sagittaria pygmaea, 504 h, 400 g/ha single, 3 weeks after treatment, read-out: Herbicidal effect (%) SAGPY), 10%; in data set [3] it was 30%.

In the case of `CCCOCCN(C(=O)CCl)c1c(CC)cccc1CC` [(b-2), pretilachlor], the pest or weed control at 125 g/ha in data set [1] (Cyperus serotinus, 504 h, 125 g/ha single, 3 weeks after treatment, read-out: Herbicidal effect (%) CYPSE) was determined as 0%; in data set [2] (Pontederia vaginalis, 504 h, 125 g/ha single, 3 weeks after treatment, read-out: Herbicidal effect (%) MOOVP) it was 10%; in the data set on Sagittaria pygmaea Miq (Sagittaria pygmaea, 504 h, 125 g/ha single, 3 weeks after treatment, read-out: Herbicidal effect (%) SAGPY) it was 0%; in data set [3] (125 g/ha single, 3 weeks after treatment), 10%. Also, the pest or weed control at 250 g/ha amounted to 0% in data set [1] (Cyperus serotinus, 504 h, 250 g/ha single, 3 weeks after treatment, read-out: Herbicidal effect (%) CYPSE); 20% in data set [2] (Pontederia vaginalis, 504 h, 250 g/ha single, 3 weeks after treatment, read-out: Herbicidal effect (%) MOOVP); 10% with Sagittaria pygmaea Miq (Sagittaria pygmaea, 504 h, 250 g/ha single, 3 weeks after treatment, read-out: Herbicidal effect (%) SAGPY); 10% in data set [3] (250 g/ha single, 3 weeks after treatment).
